Data published in the supplement of paper PMC10307832.

Tests used:
Assay in all cases: relative viability (nuclei count vs DMSO), 5 days (fraction); higher = more cells survive
[1] = compound: CC(C)C[C@@H](C(=O)N[C@H](C(=O)OC1CCCC1)c1ccccc1)[C@H](O)C(=O)NO [Tosedostat] + Cc1cc(Nc2cc(N3CCN(C)CC3)nc(Sc3ccc(NC(=O)C4CC4)cc3)n2)n[nH]1 [Tozasertib] (partner 0.1 µM)
How it was run: (§1)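 Five library-drug doses in √10 steps were combined with a fixed anchor-drug dose, or a single drug was given alone, by pin tool to lung cancer cell lines in 1536-well plates the day after seeding. Nuclei were stained and counted after 5 days. Relative viability is the nuclei count in treated wells over that in vehicle wells, taken as the median of duplicate plates.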

[2] = compound: CC1=NN=C(O1)C2=NN=C(C=C2)N3CCC(CC3)OC4=C(C=CC(=C4)F)Cl + CC(C)C[C@H](NC(=O)[C@H](Cc1ccccc1)NC(=O)c1cnccn1)B(O)O [Bortezomib] (partner 0.002 µM)
How it was run: as §1

[3] = compound: CC1=NN=C(O1)C2=NN=C(C=C2)N3CCC(CC3)OC4=C(C=CC(=C4)F)Cl + COc1cc2c(Oc3ccc(NC(=O)C4(C(=O)Nc5ccc(F)cc5)CC4)cc3F)ccnc2cc1OCCCN1CCOCC1 [Foretinib] (partner 0.25 µM)
How it was run: as §1

[4] = compound: CC1=NN=C(O1)C2=NN=C(C=C2)N3CCC(CC3)OC4=C(C=CC(=C4)F)Cl + C[C@]1(O)C[C@@H](c2nc(-c3ccc4ccc(-c5ccccc5)nc4c3)c3c(N)nccn32)C1 [Linsitinib] (partner 1 µM)
How it was run: as §1

Cell Line	relative viability ([1]; first compound 0.02 µM)	relative viability ([1]; first compound 0.06325 µM)	relative viability ([1]; first compound 0.2 µM)	relative viability ([1]; first compound 0.6325 µM)	relative viability ([1]; first compound 2 µM)	relative viability ([2]; first compound 0.253 µM)	relative viability ([2]; first compound 0.8 µM)	relative viability ([2]; first compound 2.53 µM)	relative viability ([2]; first compound 8 µM)	relative viability ([3]; first compound 0.253 µM)	relative viability ([3]; first compound 0.8 µM)	relative viability ([3]; first compound 2.53 µM)	relative viability ([3]; first compound 8 µM)	relative viability ([4]; first compound 0.253 µM)	relative viability ([4]; first compound 0.8 µM)	relative viability ([4]; first compound 2.53 µM)	relative viability ([4]; first compound 8 µM)
201T	0.938	1.02	1.06	1.11	0.968	0.484	0.569	0.592	0.552	0.607	0.758	0.661	0.73	0.569	0.596	0.634	0.565
A549	–	–	–	–	–	–	–	–	–	0.746	0.545	0.464	0.53	0.543	0.565	0.427	0.351
A-427	0.217	0.196	0.185	0.162	0.152	0.867	–	0.864	0.802	1.02	–	0.998	0.871	0.947	–	0.907	0.887
ABC-1	0.17	0.194	0.137	0.118	0.17	0.26	0.314	0.237	0.267	0.601	0.439	0.578	0.644	0.627	0.465	0.575	0.451
BEN	0.535	0.523	0.429	0.326	0.252	0.726	0.771	0.932	0.719	0.679	0.7	0.665	0.541	0.784	0.879	0.919	0.75
CAL-12T	0.366	0.313	0.345	0.279	0.301	1.01	0.867	0.86	0.696	0.965	0.964	0.879	0.777	0.953	0.78	0.754	0.869
COR-L23	0.214	0.165	0.172	0.161	0.128	0.737	0.754	0.836	0.68	0.901	0.836	0.869	0.672	0.669	0.726	0.678	0.579
COR-L 105	0.359	0.291	0.392	0.378	0.338	0.851	0.78	0.983	1.18	0.994	1.06	1.12	1.08	0.764	0.935	1.1	1.21
Calu-6	–	–	–	–	–	0.764	0.807	0.832	0.804	0.602	0.597	0.517	0.573	0.635	0.612	0.691	0.656
ChaGo-K-1	0.241	0.227	0.269	0.199	0.176	0.624	0.617	0.794	0.605	0.773	0.709	0.785	0.739	–	–	–	–
EBC-1	–	–	–	–	–	0.479	0.476	0.444	0.412	0.0917	0.0957	0.103	0.0946	0.549	0.558	0.623	0.57
EKVX	0.401	0.511	0.392	0.358	0.311	0.368	0.301	0.357	0.418	0.41	0.382	0.382	0.36	0.409	0.341	0.364	0.423
EMC-BAC-2	0.281	0.27	0.265	0.242	0.187	1.02	0.964	1.02	0.95	0.968	0.95	0.89	0.98	0.742	0.755	0.77	0.637
EPLC-272H	0.7	0.172	0.16	0.124	0.107	0.667	–	1.05	0.996	0.713	0.604	0.638	0.637	1.09	–	1.18	1.05
H3255	0.575	0.717	0.643	0.534	0.656	0.465	0.569	0.478	0.526	0.793	0.644	0.783	0.673	0.697	0.719	0.718	0.716
HARA	0.111	0.129	0.0782	0.0748	0.07	0.483	0.335	0.353	0.293	0.538	0.289	0.317	0.273	0.705	0.394	0.451	0.308
HCC-15	0.571	0.415	0.43	0.274	0.346	0.485	0.407	0.415	0.395	0.538	0.476	0.405	0.446	0.608	0.58	0.553	0.578
HCC-44	1.18	0.893	0.885	0.806	0.338	0.449	0.43	0.398	0.431	–	–	–	–	0.423	0.484	0.484	0.384
HCC-78	0.414	0.509	0.426	0.461	0.406	0.326	0.403	0.393	0.363	0.465	0.51	0.467	0.516	0.455	0.417	0.459	0.403
HCC-366	0.113	0.113	0.0994	0.0993	0.0727	0.394	0.438	0.436	0.395	0.46	0.574	0.466	0.343	0.225	0.291	0.386	0.247
HCC-827	0.416	0.412	0.445	0.357	0.426	0.514	0.381	0.524	0.523	0.381	0.239	0.353	0.318	0.395	0.281	0.366	0.355
HOP-62	0.393	0.31	0.329	0.323	0.152	0.577	–	0.764	0.419	0.806	0.833	0.806	0.543	0.677	–	0.771	0.443
IA-LM	–	–	–	–	–	0.17	0.137	0.132	0.186	0.164	0.158	0.171	0.167	0.0892	0.0763	0.1	0.0794

Cell Line	relative viability ([1]; first compound 0.02 µM)	relative viability ([1]; first compound 0.06325 µM)	relative viability ([1]; first compound 0.2 µM)	relative viability ([1]; first compound 0.6325 µM)	relative viability ([1]; first compound 2 µM)	relative viability ([2]; first compound 0.253 µM)	relative viability ([2]; first compound 0.8 µM)	relative viability ([2]; first compound 2.53 µM)	relative viability ([2]; first compound 8 µM)	relative viability ([3]; first compound 0.253 µM)	relative viability ([3]; first compound 0.8 µM)	relative viability ([3]; first compound 2.53 µM)	relative viability ([3]; first compound 8 µM)	relative viability ([4]; first compound 0.253 µM)	relative viability ([4]; first compound 0.8 µM)	relative viability ([4]; first compound 2.53 µM)	relative viability ([4]; first compound 8 µM)
LC-2-ad	0.472	0.454	0.403	0.297	0.281	0.323	0.259	0.328	0.274	0.66	0.634	0.623	0.507	0.427	0.376	0.381	0.328
LCLC-97TM1	0.216	0.203	0.184	0.165	0.172	0.373	0.211	0.392	0.362	0.481	0.439	0.433	0.381	0.159	–	0.174	0.191
LCLC-103H	0.508	0.512	0.545	0.407	0.276	0.69	0.829	0.744	0.675	0.579	0.596	0.494	0.582	0.807	0.867	0.761	0.711
LK-2	0.17	0.208	0.165	0.162	0.162	–	–	–	–	1.11	1.05	1.45	1.5	0.603	0.592	0.627	0.49
LOU-NH91	0.686	0.699	0.665	0.574	0.917	–	0.517	0.479	0.436	0.896	0.847	0.927	0.9	–	0.86	0.862	0.997
LU99A	0.253	0.284	0.277	0.242	0.225	1.01	1	1.06	0.953	0.826	0.868	0.836	0.742	0.459	0.5	0.498	0.466
LXF-289	0.198	0.167	0.169	0.122	0.0708	0.682	0.674	0.753	0.619	0.692	0.671	0.66	0.563	0.724	0.712	0.688	0.603
NCI-H23	0.491	0.347	0.41	0.26	0.294	0.948	–	0.894	0.838	0.981	–	0.792	0.841	0.482	–	0.543	0.521
NCI-H358	0.0914	0.1	0.0977	0.0822	0.0804	–	–	–	–	0.512	0.393	0.512	0.41	0.714	0.751	0.758	0.795
NCI-H522	0.561	0.566	0.533	0.509	0.45	–	–	–	–	–	–	–	–	–	–	–	–
NCI-H1299	–	–	–	–	–	0.935	0.911	0.858	0.807	1.09	1.08	1.05	1.02	0.896	0.802	0.807	0.856
NCI-H1395	0.757	0.748	0.768	0.678	0.675	–	–	–	–	0.939	0.901	0.969	0.893	0.931	0.943	1.09	1.06
NCI-H1563	–	–	–	–	–	0.872	0.829	0.823	0.934	0.925	0.866	0.931	0.951	1.18	1.1	1.35	1.21
NCI-H1648	0.518	0.493	0.402	0.576	0.433	–	–	–	–	–	–	–	–	–	–	–	–
NCI-H1650	0.333	0.503	0.339	0.238	0.242	–	0.202	0.17	0.197	–	0.928	0.998	0.852	–	–	–	–
NCI-H1703	–	–	–	–	–	0.304	0.278	0.222	0.218	–	0.438	0.394	0.478	0.714	0.686	0.803	0.737
NCI-H1792	–	–	–	–	–	0.405	0.423	0.401	0.494	–	–	–	–	0.324	0.409	0.36	0.401
NCI-H1793	0.289	0.386	0.295	0.31	0.289	–	–	–	–	0.448	0.639	0.565	0.621	0.725	0.735	0.952	0.822
NCI-H1944	0.244	0.244	0.23	0.256	0.22	–	–	–	–	0.464	0.463	0.473	0.498	0.626	0.769	0.728	0.717
NCI-H2170	0.737	0.728	0.734	0.707	0.689	–	–	–	–	0.466	0.575	0.583	0.432	–	–	–	–
NCI-H2342	0.489	0.537	0.522	0.496	0.491	–	–	–	–	0.671	0.627	0.684	0.545	–	–	–	–
SK-MES-1	1.01	0.822	0.95	0.801	0.61	–	–	–	–	0.824	0.835	0.939	0.855	0.848	0.8	0.828	0.815
SW 900	0.573	0.482	0.421	0.427	0.314	–	–	–	–	–	–	0.822	0.73	–	–	–	–
